The record followed here is publication PMC9166630, “SAR Probing of KX2-391 Provided Analogues With Juxtaposed Activity Profile Against Major Oncogenic Kinases” (Frontiers in Oncology, 2022).

Data set [1] concerns MV4-11 leukemia cell line. Description: CellTiter-Blue cell viability assay, MV4-11. Format: cell-based. To be noted: Homo sapiens. On the procedure: (§1) HL60, K562, MV4-11 and NB4 were purchased from CLS Cell Line Service GmbH (Eppelheim, Germany). All cell lines were cultured in RPMI-1640 medium supplemented with 10% fetal bovine serum (FBS) (Thermo Fisher Scientific) and 0.1% ciprofloxacin (2.5mg/ml; Cipla Limited; Mumbai, India), and were maintained at 37°C in the presence of 21% O2 and 5% CO2.
(§2) Cell viability was determined using the CellTiter®-Blue Cell Viability Assay kit (Promega, Madison, WI, USA). Approximately 10^4 cells were counted and plated in a 96-well plate in the presence of test compounds ranging from 0.01 to 10 or 20 µM in triplicate and were incubated for 48 h at 37°C in a humidified incubator. After the incubation period was complete, 20 µL of CellTiter®-Blue Cell Viability Assay reagent was added to each well and incubated for additional 2 h for the development of florescence. Florescence was measured at Ex/Em 540/590 on SpectraMax® i3 Multi-Mode microplate reader (Molecular Devices, LLC; San Jose, CA, USA) and plotted against drug concentration to determine the IC50 of the test compounds. The IC50 was obtained by non-linear regression model using GraphPad Prism 6.07 (GraphPad Software, Inc, USA).
(In general: The colour change of resazurin is a common sign of viable cells or microbes.)

Data set [2] concerns HL60 leukemia cell line. As to the kind of experiment: CellTiter-Blue cell viability assay, HL60. The class given is cell-based. To be noted: Homo sapiens, HL-60. On the procedure:
as §1, §2

The subject of data set [3] is K562 leukemia cell line. Description: CellTiter-Blue cell viability assay, K562. The class given is cell-based. To be noted: Homo sapiens. On the procedure: as §1, §2
Data set [4] concerns NB4 leukemia cell line. As to the kind of experiment: CellTiter-Blue cell viability assay, NB4. To be noted: Homo sapiens. The class given is cell-based, human. On the procedure: as §1, §2
Setting [5] is: CellTiter-Blue, 48 h, maximum tested concentration 20 µM, read-out: IC50 ± SEM, MV4-11.
The mark [6] stands for this setting: CellTiter-Blue, 48 h, maximum tested concentration 20 µM, read-out: IC50 ± SEM, HL60.
Where [7] appears, read: CellTiter-Blue, 48 h, maximum tested concentration 20 µM, read-out: IC50 ± SEM, K562.
[8] abbreviates: 48 h, CellTiter-Blue, 48 h, maximum tested concentration 20 µM, read-out: IC50 ± SEM, NB4.

Like-named read-outs stand apart in the source and are kept apart here. Where only a bound is given, the exact number is not on record here.

One may read the IC50 as the concentration that gives 50% inhibition. Usually melting point stands for the temperature of the solid-liquid transition.

Take `COc1cccc(C(=O)Nc2ccc(CC(=O)NCc3ccccc3)cc2)c1` [Compound 4h, N-(4-(2-(benzylamino)-2-oxoethyl)phenyl)-3-methoxybenzamide]: the IC50 in data set [1] (setting [5]) worked out at 2.4 ± 0.49 µM; in data set [2] (setting [6]), 3.27 ± 0.15 µM; in data set [3] (setting [7]) it was 4.23 ± 2.44 µM; in data set [4] (setting [8]) it was 1.96 ± 1.33 µM.
Taken in the same sequence, the figures for `O=C(Cc1ccc(NC(=O)c2cccc(OCCN3CCOCC3)c2)cc1)NCc1ccccc1` [Compound 4i, N-(4-(2-(benzylamino)-2-oxoethyl)phenyl)-3-(2-morpholinoethoxy)benzamide] were 16.3 ± 4.43 µM, above 20 µM, 17.4 ± 2.63 µM and above 20 µM.
Consider `COc1ccc(C(=O)Nc2ccc(CC(=O)NCc3ccccc3)cc2)cc1Cl` [Compound 4j, N-(4-(2-(benzylamino)-2-oxoethyl)phenyl)-3-chloro-4-methoxybenzamide], for which the melting point was 186 °C. In addition, the IC50 in data set [1] (setting [5]) was found to be 20 ± 0.16 µM. Moreover, the IC50 in data set [2] (setting [6]) is above 20 µM. The IC50 in data set [3] (setting [7]) worked out at 13.04 ± 0.04 µM. For the same compound, the IC50 in data set [4] (setting [8]) was 5.33 ± 1.43 µM.
On to `COc1ccc(C(=O)Nc2ccc(CC(=O)NCc3ccccc3)cc2)cc1OC` [Compound 4k, N-(4-(2-(benzylamino)-2-oxoethyl)phenyl)-3,4-dimethoxybenzamide], for which the melting point amounted to 215 °C. The IC50 in data set [1] (setting [5]) was determined as 7.95 ± 0.31 µM. For the same compound, the IC50 in data set [2] (setting [6]) was above 20 µM. The IC50 in data set [3] (setting [7]) was above 20 µM. Moreover, the IC50 in data set [4] (setting [8]) was determined as 9.88 ± 2.8 µM.
As to `O=C(Cc1ccc(NC(=O)c2ccc(OCCN3CCOCC3)c(Cl)c2)cc1)NCc1ccccc1` [Compound 4l, N-(4-(2-(benzylamino)-2-oxoethyl)phenyl)-3-chloro-4-(2-morpholinoethoxy) benzamide], the melting point was 147 °C. In addition, the IC50 in data set [1] (setting [5]) was 18.85 ± 0.12 µM. Moreover, the IC50 in data set [2] (setting [6]) was above 20 µM. Further, the IC50 in data set [3] (setting [7]) was determined as 12.96 ± 0.08 µM. Besides, the IC50 in data set [4] (setting [8]) was determined as 8.77 ± 1.75 µM.
For `O=C(Cc1ccc(NC(=O)c2ccnc(Cl)c2)cc1)NCc1ccccc1` [Compound 4m, N-(4-(2-(benzylamino)-2-oxoethyl)phenyl)-2-chloroisonicotinamide], the IC50 in data set [1] (setting [5]) was 6.33 ± 4.24 µM; in data set [2] (setting [6]), above 20 µM; in data set [3] (setting [7]), 12.4 ± 1.39 µM; in data set [4] (setting [8]), 3.46 ± 0.06 µM.
In the case of `O=C(Cc1ccc(NC(=O)c2cncc(Cl)c2)cc1)NCc1ccccc1` [Compound 4o, N-(4-(2-(benzylamino)-2-oxoethyl)phenyl)-5-chloronicotinamide], the melting point amounted to 231 °C. The IC50 in data set [1] (setting [5]) is above 20 µM. The IC50 in data set [2] (setting [6]) is above 20 µM. Further, the IC50 in data set [3] (setting [7]) is above 20 µM. Moreover, in data set [4] (setting [8]), the IC50 came out at 5.89 ± 1.11 µM.
`O=C(Cc1ccc(NC(=O)c2cccc(Cl)c2)cc1)NCCc1ccccc1` [Compound 4q, 3-Chloro-N-(4-(2-oxo-2-(phenethylamino)ethyl)phenyl)benzamide] returned a melting point of 160 °C. Moreover, in data set [1] (setting [5]), the IC50 is above 20 µM. Besides, the 50% inhibitory concentration (IC50) in data set [2] (setting [6]) is above 20 µM. In addition, in data set [3] (setting [7]), the IC50 was above 20 µM.
Take `O=C(Cc1ccc(NC(=O)c2cccc(Cl)c2)cc1)NCc1ccco1` [Compound 4r, 3-Chloro-N-(4-(2-((furan-2-ylmethyl)amino)-2-oxoethyl)phenyl)benzamide]: the melting point was found to be 206 °C. Besides, the IC50 in data set [1] (setting [5]) was above 20 µM. Moreover, the IC50 in data set [2] (setting [6]) is above 20 µM. In data set [3] (setting [7]), the IC50 was above 20 µM.
In the case of `O=C(Cc1ccc(NC(=O)c2cccc(Cl)c2)cn1)NCc1ccccc1` [Compound 4s, N-(6-(2-(benzylamino)-2-oxoethyl)pyridin-3-yl)-3-chlorobenzamide], the IC50 in data set [1] (setting [5]) worked out at 2.87 ± 0.3 µM; in data set [2] (setting [6]), 6.24 ± 3.3 µM; in data set [3] (setting [7]), 4 ± 1.5 µM; in data set [4] (setting [8]) it was 1.74 ± 0.16 µM.
As to `O=C(Cc1ccc(-c2ccc(OCCN3CCOCC3)cc2)cn1)NCc1ccccc1` [KX2-391, Tirbanibulin], the IC50 in data set [1] (positive reference for validation, read-out: IC50, MV411) amounted to 0.00419 µM; in data set [2] (positive reference for validation, read-out: IC50, HL60) it was 0.0121 µM; in data set [3] (positive reference for validation, read-out: IC50, K562), 0.0145 µM; in data set [4] (positive reference for validation, read-out: IC50, NB4), 0.0033 µM.
